Reference: patent US20050208000A1, “Compositions and methods for prevention of photoaging” (priority 1999, published 2005)

System: human elastin promoter
Assay: Transgenic mouse model of photoaging: human elastin promoter/CAT reporter activity in skin after solar simulating radiation
Assay type: in vivo, mice
From the text: A transgenic mouse model which contains the human elastin promoter linked to a chloramphenicol acetyltransferase (CAT) reporter gene for testing compounds that may inhibit cutaneous photodamage has been developed. These mice express human elastin promoter activity in a tissue-specific and developmentally regulated manner. […] In addition, quantitative data can be obtained after only a single exposure to ultraviolet radiation. A test compound is applied to the skin of a transgenic mouse capable of expressing the human elastin promoter. The transgenic mouse is then exposed to solar radiation and human elastin promoter activity in the mouse is determined. The human elastin promoter activity is then compared to that in transgenic mice also exposed to an equivalent dose of solar radiation which were not treated with the test compound to determine whether or not the test compound provided protection against the solar radiation. […]
Using this transgenic mouse line, the ability of alpha 1-antitrypsin to inhibit the effects of solar radiation on human elastin promoter activity was determined. […]
To measure the expression of the human elastin promoter/CAT reporter gene construct in the skin of transgenic, mice and in fibroblast cultures established from these animals, CAT activity was determined. […]

alpha 1-antitrypsin
reduction in CAT activity (topical 20 mg/ml alpha 1-antitrypsin in goat's milk versus goat's milk alone, 20 MEDs SSR on three consecutive days): 69%
Relative increase in CAT activity (mean+S.D.) (transgenic mice, topical application to the back about 15 min before 20 MEDs SSR, three consecutive days, skin harvested 24 hours after third phototreatment, baseline of unirradiated untreated control mice standardized to one): 4.5+1.0
